Test results taken from article PMC7007950, “Farrerol Directly Targets GSK-3β to Activate Nrf2-ARE Pathway and Protect EA.hy926 Cells against Oxidative Stress-Induced Injuries” (Oxidative Medicine and Cellular Longevity, 2020).

Target: T1, glycogen synthase kinase 3β (GSK-3β) (Homo sapiens, UniProt P49841)
T1 construct: gene GSK3B; recombinant His-tagged GSK-3β
Test: BLI on immobilized GSK-3β; also DARTS in lysate and Kinase-Glo inhibition (IC50 […])
Format: binding

T1 sequence (P49841 whole entry): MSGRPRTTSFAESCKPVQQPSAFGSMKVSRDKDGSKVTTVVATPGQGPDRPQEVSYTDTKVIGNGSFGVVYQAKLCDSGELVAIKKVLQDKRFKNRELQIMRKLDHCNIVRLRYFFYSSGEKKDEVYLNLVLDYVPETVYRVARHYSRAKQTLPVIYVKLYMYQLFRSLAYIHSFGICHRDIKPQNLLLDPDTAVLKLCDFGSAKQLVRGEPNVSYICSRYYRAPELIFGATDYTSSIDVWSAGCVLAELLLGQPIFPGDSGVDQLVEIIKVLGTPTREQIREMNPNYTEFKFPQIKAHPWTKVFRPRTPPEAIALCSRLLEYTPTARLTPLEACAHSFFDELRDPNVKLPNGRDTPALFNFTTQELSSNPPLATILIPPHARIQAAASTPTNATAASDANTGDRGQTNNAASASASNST

## Cc1c(O)c(C)c2c(c1O)C(=O)C[C@@H](c1ccc(O)cc1)O2 [farrerol]
  Kd: 634 µM
